Bounds are passed on as bounds.

This assay addresses T1, glutathione S-transferase (GST)-linked full-length human Syk protein (Homo sapiens, UniProt P43405).
T1 construct: glutathione S-transferase (GST)-linked full-length human Syk protein; purchased Carna Biosciences; host or cells: Baculovirus expression system
In words: Syk enzyme assay. The note with it: 0.83 nM Syk, time-resolved fluorescence; read-out: IC50 of Syk-inhibitory activity. It is filed as biochemical. In a few lines: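 Phosphotyrosine on a biotin-peptide substrate (0.5 μM) was read by time-resolved fluorescence at 615 and 665 nm with Eu-anti-pTyr antibody and APC-streptavidin after 1 h EDTA stop.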
Turning to `CCCC[C@@H](Nc1nc(Nc2cc(F)c3c(c2)c(OC)nn3C)c(C(N)=O)cc1F)[C@H](C)N` [Example 2-155, 6-(((2S,3R)-2-aminoheptan-3-yl)amino)-5-fluoro-2-((7-fluoro-3-methoxy-1-methyl-1H-indazol-5-yl)amino)nicotinamide], the IC50 was < 0.01 µM.

As for `CC[C@@H](Nc1nc(Nc2ccc3c(c2)c(N(C)CCOC)nn3C)c(C(N)=O)cc1F)[C@H](C)N` [Example 2-458, 6-(((2S,3R)-2-aminopentan-3-yl)amino)-5-fluoro-2-((3-((2-methoxyethyl)(methyl)amino)-1-methyl-1H-indazol-5-yl)amino)nicotinamide], the IC50 was < 0.01 µM.

For `CC[C@H](N)[C@H](Nc1nc(Nc2ccc3c(c2)c(C)nn3C)c(C(N)=O)cc1F)C1CC1` [Example 2-545, 6-(((1R,2S)-2-amino-1-cyclopropylbutyl)amino)-2-((1,3-dimethyl-1H-indazol-5-yl)amino)-5-fluoronicotinamide], the IC50 was < 0.01 µM.

In the case of `CCC[C@@H](Nc1nc(Nc2cnc(OCCOC)c(-n3nccn3)c2)c(C(N)=O)cc1F)[C@H](C)N` [Example 2-203, 6-(((2S,3R)-2-aminohexan-3-yl)amino)-5-fluoro-2-((6-(2-methoxyethoxy)-5-(2H-1,2,3-triazol-2-yl)pyridin-3-yl)amino)nicotinamide], the IC50 fell in the range of 0.01 to 0.05 µM.

With `COCCn1nc(OC(F)F)c2cc(Nc3nc(N[C@H](C4CCC4)[C@H](C)N)c(F)cc3C(N)=O)ccc21` [Example 2-543, 6-(((1R,2S)-2-amino-1-cyclobutylpropyl)amino)-2-((3-(difluoromethoxy)-1-(2-methoxyethyl)-1H-indazol-5-yl)amino)-5-fluoronicotinamide], the IC50 is < 0.01 µM.

`C[C@H](N)[C@H](Nc1nc(Nc2cnc3c(c2)c(N(C)C)nn3C)c(C(N)=O)cc1F)C1CCC1` [Example 2-293, 6-(((1R,2S)-2-amino-1-cyclobutylpropyl)amino)-2-((3-(dimethylamino)-1-methyl-1H-pyrazolo[3,4-b]pyridin-5-yl)amino)-5-fluoronicotinamide]: the IC50 was < 0.01 µM.

As for `C[C@H](N)[C@H](Nc1nc(Nc2ccc3c(c2)c(N(C)C)nn3C)c(C(N)=O)cc1F)c1ccc(F)c(F)c1` [Example 2-553, 6-(((1R,2S)-2-amino-1-(3,4-difluorophenyl)propyl)amino)-2-((3-(dimethylamino)-1-methyl-1H-indazol-5-yl)amino)-5-fluoronicotinamide], the IC50 is < 0.01 µM.

Take `NC(=O)c1cc(F)c(N[C@@H]2CCCC[C@@H]2N)nc1Nc1cnc(-n2ccnn2)c(F)c1` [Example 2-68, 6-(((1R,2S)-2-aminocyclohexyl)amino)-5-fluoro-2-((5-fluoro-6-(1H-1,2,3-triazol-1-yl)pyridin-3-yl)amino)nicotinamide]: the IC50 was 0.01 to 0.05 µM.

For the compound `CC[C@H](N)[C@@H](C)Nc1nc(Nc2ccc3c(c2)c(N(C)CCOC)nn3C)c(C(N)=O)cc1F` [Example 2-461, 6-(((2R,3S)-3-aminopentan-2-yl)amino)-5-fluoro-2-((3-((2-methoxyethyl)(methyl)amino)-1-methyl-1H-indazol-5-yl)amino)nicotinamide], the IC50 was 0.01 to 0.05 µM.

Consider `Cc1ccc(Nc2nc(N[C@@H]3CCCC[C@@H]3N)c(F)cc2C(N)=O)cc1Cl` [Example 2-445, 6-(((1R,2S)-2-aminocyclohexyl)amino)-2-((3-chloro-4-methylphenyl)amino)-5-fluoronicotinamide], for which the IC50 was < 0.01 µM.

On to `COc1nn(C)c2ncc(Nc3nc(N[C@@H](CN)CC(C)C)c(F)cc3C(N)=O)cc12` [Example 2-250, (R)-6-((1-amino-4-methylpentan-2-yl)amino)-5-fluoro-2-((3-methoxy-1-methyl-1H-pyrazolo[3,4-b]pyridin-5-yl)amino)nicotinamide], for which the IC50 was < 0.01 µM.

As for `C[C@H](N)[C@H](Nc1nc(Nc2cnc(N3CCOCC3)c(F)c2)c(C(N)=O)cc1F)c1ccc(Cl)s1` [Example 2-511, 6-(((1S,2S)-2-amino-1-(5-chlorothiophen-2-yl)propyl)amino)-5-fluoro-2-((5-fluoro-6-morpholinopyridin-3-yl)amino)nicotinamide], the half-inhibitory concentration (IC50) lay within 0.01 to 0.05 µM.

As for `Cc1ncc(Nc2nc(N[C@H](c3cccc(F)c3)[C@H](C)N)c(F)cc2C(N)=O)cc1F` [Example 2-453, 6-(((1R,2S)-2-amino-1-(3-fluorophenyl)propyl)amino)-5-fluoro-2-((5-fluoro-6-methylpyridin-3-yl)amino)nicotinamide], the half-maximal inhibitory concentration (IC50) is < 0.01 µM.

With `COc1nn(CC(F)F)c2ccc(Nc3nc(N[C@H](CC4CC4)[C@H](C)N)c(F)cc3C(N)=O)cc12` [Example 2-53, 6-(((2R,3S)-3-amino-1-cyclopropylbutan-2-yl)amino)-2-((1-(2,2-difluoroethyl)-3-methoxy-1H-indazol-5-yl)amino)-5-fluoronicotinamide], the IC50 was < 0.01 µM.

On to `CC(C)C[C@@H](Nc1nc(Nc2cccc3c2cnn3C)c(C(N)=O)cc1F)[C@H](C)N` [Example 2-12, 6-(((2S,3R)-2-amino-5-methylhexan-3-yl)amino)-5-fluoro-2-((1-methyl-1H-indazol-4-yl)amino)nicotinamide], for which the IC50 was < 0.01 µM.

As to `CC[C@@H](Nc1nc(Nc2cncc3c2cnn3CCOC)c(C(N)=O)cc1F)[C@H](C)N` [Example 2-387, 6-(((2S,3R)-2-aminopentan-3-yl)amino)-5-fluoro-2-((1-(2-methoxyethyl)-1H-pyrazolo[3,4-c]pyridin-4-yl)amino)nicotinamide], the IC50 lay within 0.01 to 0.05 µM.

With `COc1ccc([C@@H](Nc2nc(Nc3cc(OC)nc(OC)c3)c(C(N)=O)cc2F)[C@H](C)N)cc1` [Example 2-357, 6-(((1R,2S)-2-amino-1-(4-methoxyphenyl)propyl)amino)-2-((2,6-dimethoxypyridin-4-yl)amino)-5-fluoronicotinamide], the concentration for half-maximal inhibition (IC50) is 0.01 to 0.05 µM.

For `CC[C@H](N)[C@@H](CC)Nc1nc(Nc2cnc3c(c2)c(C)nn3C)c(C(N)=O)cc1F` [Example 2-248, 6-(((3R,4S)-4-aminohexan-3-yl)amino)-2-((1,3-dimethyl-1H-pyrazolo[3,4-b]pyridin-5-yl)amino)-5-fluoronicotinamide], the IC50 lay within 0.05 to 0.1 µM.

For `Cc1cnn(-c2cncc(Nc3nc(N[C@@H](CN)CC(C)C)c(F)cc3C(N)=O)c2)c1` [Example 2-524, (R)-6-((1-amino-4-methylpentan-2-yl)amino)-5-fluoro-2-((5-(4-methyl-1H-pyrazol-1-yl)pyridin-3-yl)amino)nicotinamide], the IC50 was < 0.01 µM.

As for `COc1nn(C)c2c(F)cc(Nc3nc(N[C@H](CC4CC4)[C@H](C)N)c(F)cc3C(N)=O)cc12` [Example 2-157, 6-(((2R,3S)-3-amino-1-cyclopropylbutan-2-yl)amino)-5-fluoro-2-((7-fluoro-3-methoxy-1-methyl-1H-indazol-5-yl)amino)nicotinamide], the IC50 was < 0.01 µM.

On to `CC[C@@H](Nc1nc(Nc2cccc3c2cnn3CCOC)c(C(N)=O)cc1F)[C@H](C)N` [Example 2-304, 6-(((2S,3R)-2-aminopentan-3-yl)amino)-5-fluoro-2-((1-(2-methoxyethyl)-1H-indazol-4-yl)amino)nicotinamide], for which the IC50 is < 0.01 µM.

Turning to `CN(C)c1nn(C)c2ncc(Nc3nc(N[C@@H]4CCOC[C@@H]4N)c(F)cc3C(N)=O)cc12` [Example 2-335, 6-(((3R,4R)-3-aminotetrahydro-2H-pyran-4-yl)amino)-2-((3-(dimethylamino)-1-methyl-1H-pyrazolo[3,4-b]pyridin-5-yl)amino)-5-fluoronicotinamide], the IC50 was 0.01 to 0.05 µM.

On to `COCCn1ncc2cc(Nc3nc(N[C@H](c4ccc(F)c(F)c4)[C@H](C)N)c(F)cc3C(N)=O)ccc21` [Example 2-554, 6-(((1R,2S)-2-amino-1-(3,4-difluorophenyl)propyl)amino)-5-fluoro-2-((1-(2-methoxyethyl)-1H-indazol-5-yl)amino)nicotinamide], for which the IC50 is < 0.01 µM.

As for `CN(C)c1nn(C)c2ncc(Nc3nc(N[C@@H]4CCCC[C@@H]4N)c(F)cc3C(N)=O)cc12` [Example 2-286, 6-(((1R,2S)-2-aminocyclohexyl)amino)-2-((3-(dimethylamino)-1-methyl-1H-pyrazolo[3,4-b]pyridin-5-yl)amino)-5-fluoronicotinamide], the IC50 fell in the range of 0.01 to 0.05 µM.

Consider `C[C@H](N)[C@H](Nc1nc(Nc2cncc3c2cnn3CC(F)F)c(C(N)=O)cc1F)C1CC1` [Example 2-398, 6-(((1R,2S)-2-amino-1-cyclopropylpropyl)amino)-2-((1-(2,2-difluoroethyl)-1H-pyrazolo[3,4-c]pyridin-4-yl)amino)-5-fluoronicotinamide], for which the IC50 is < 0.01 µM.

On to `CCn1ncc2c(Nc3nc(N[C@H](c4cccs4)[C@H](C)N)c(F)cc3C(N)=O)cccc21` [Example 2-509, 6-(((1S,2S)-2-amino-1-(thiophen-2-yl)propyl)amino)-2-((1-ethyl-1H-indazol-4-yl)amino)-5-fluoronicotinamide], for which the IC50 was < 0.01 µM.

In the case of `COCCNc1nn(C)c2ccc(Nc3nc(N[C@H](C4CC4)[C@H](C)N)c(F)cc3C(N)=O)cc12` [Example 2-464, 6-(((1R,2S)-2-amino-1-cyclopropylpropyl)amino)-5-fluoro-2-((3-((2-methoxyethyl)amino)-1-methyl-1H-indazol-5-yl)amino)nicotinamide], the IC50 was in the range of 0.01 to 0.05 µM.

On to `CC[C@H](N)[C@H](Nc1nc(Nc2cncc(F)c2)c(C(N)=O)cc1F)C1CC1` [Example 2-486, 6-(((1R,2S)-2-amino-1-cyclopropylbutyl)amino)-5-fluoro-2-((5-fluoropyridin-3-yl)amino)nicotinamide], for which the concentration for half-maximal inhibition (IC50) is 0.01 to 0.05 µM.

For the compound `COCCn1nc(OC)c2cc(Nc3nc(N[C@H](C4CCC4)[C@H](C)N)c(F)cc3C(N)=O)ccc21` [Example 2-540], the half-inhibitory concentration (IC50) is < 0.01 µM.

Consider `Cc1nn(C)c2ncc(Nc3nc(N[C@@H]4CCOC[C@@H]4N)c(F)cc3C(N)=O)cc12` [Example 2-333, 6-(((3R,4R)-3-aminotetrahydro-2H-pyran-4-yl)amino)-2-((1,3-dimethyl-1H-pyrazolo[3,4-b]pyridin-5-yl)amino)-5-fluoronicotinamide], for which the IC50 lay within 0.01 to 0.05 µM.

(Values after patent US9051310B2, “Nicotinamide derivative or salt thereof” (FUJIFILM Corporation, priority 2011, dated 2015).)
